The values that follow come from the supplement of paper PMC10307832.

Holding throughout (test): relative viability (nuclei count vs DMSO), 5 days (fraction); higher = more cells survive
Compound in test [1]: COc1cc2nc(N3CCCN(C)CC3)nc(NC3CCN(Cc4ccccc4)CC3)c2cc1OC + N=C(N)NC(=N)NCCc1ccccc1 [Phenformin] (partner 250 µM)
The gist of the method:
(§1)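 Lung cancer cell lines were seeded in 1536-well plates and dosed by pin tool the next day, with either a single drug or a fixed anchor-drug dose combined with five library-drug doses (not always all listed) spaced in √10 steps. Five days later, one step fixed the cells and stained their nuclei (final 0.05% Triton X-100, 1% formaldehyde, 1 ug/ml Hoechst), and nuclei were counted on 4× images. Relative viability is the nuclei count in treated wells divided by the count in vehicle wells, and each value is the median of duplicate plates.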

Compound in the test “AZD6482 + Trametinib”: Cc1cc([C@@H](C)Nc2ccccc2C(=O)O)c2nc(N3CCOCC3)cc(=O)n2c1 [AZD6482] + CC(=O)Nc1cccc(-n2c(=O)n(C3CC3)c(=O)c3c(Nc4ccc(I)cc4F)n(C)c(=O)c(C)c32)c1 [Trametinib] (partner 0.02 µM)
The gist of the method:
as §1

Compound in the test “AZD6482 + Vorinostat”: Cc1cc([C@@H](C)Nc2ccccc2C(=O)O)c2nc(N3CCOCC3)cc(=O)n2c1 [AZD6482] + O=C(CCCCCCC(=O)Nc1ccccc1)NO [Vorinostat] (partner 1 µM)
The gist of the method:
as §1

Compound in the test “AZD6482 + Pictilisib”: Cc1cc([C@@H](C)Nc2ccccc2C(=O)O)c2nc(N3CCOCC3)cc(=O)n2c1 [AZD6482] + CS(=O)(=O)N1CCN(Cc2cc3nc(-c4cccc5[nH]ncc45)nc(N4CCOCC4)c3s2)CC1 [Pictilisib] (partner 1 µM)
The gist of the method:
as §1

As for LOU-NH91, the relative viability is 0.643 in test [1] (first compound 0.2 µM); 0.803 in test [1] (first compound 0.6325 µM); 0.506 in test [1] (first compound 2 µM); 0.674 in test [1] (first compound 6.325 µM); 0.752 in the test with AZD6482 + Trametinib (first compound 0.08 µM); 0.8 with AZD6482 + Trametinib (first compound 0.253 µM). Moreover, the relative viability with AZD6482 + Trametinib (first compound 0.8 µM) is 0.757; with AZD6482 + Trametinib (first compound 2.53 µM), 0.603; with AZD6482 + Trametinib (first compound 8 µM) it was 0.623; with AZD6482 + Vorinostat (first compound 0.08 µM), 0.852; with AZD6482 + Vorinostat (first compound 0.253 µM) it was 0.92; in the test with AZD6482 + Vorinostat (first compound 0.8 µM), 0.834. Moreover, the relative viability stood at 0.602 in the test with AZD6482 + Vorinostat (first compound 2.53 µM); 0.712 in the test with AZD6482 + Vorinostat (first compound 8 µM); 0.491 in the test with AZD6482 + Pictilisib (first compound 0.08 µM); 0.513 with AZD6482 + Pictilisib (first compound 0.253 µM); 0.516 with AZD6482 + Pictilisib (first compound 0.8 µM); 0.48 with AZD6482 + Pictilisib (first compound 2.53 µM). The relative viability with AZD6482 + Pictilisib (first compound 8 µM) worked out at 0.493.

Turning to LU99A, the relative viability turned out to be 0.846 in test [1] (first compound 0.2 µM); 0.827 in test [1] (first compound 0.6325 µM); 0.691 in test [1] (first compound 2 µM); 0.857 in test [1] (first compound 6.325 µM); 0.457 in the test with AZD6482 + Trametinib (first compound 0.08 µM); 0.478 with AZD6482 + Trametinib (first compound 0.253 µM). Further, the relative viability in the test with AZD6482 + Trametinib (first compound 0.8 µM) stood at 0.539; in the test with AZD6482 + Trametinib (first compound 2.53 µM), 0.568; in the test with AZD6482 + Trametinib (first compound 8 µM), 0.475; with AZD6482 + Vorinostat (first compound 0.08 µM), 0.473; with AZD6482 + Vorinostat (first compound 0.253 µM) it was 0.403; in the test with AZD6482 + Vorinostat (first compound 0.8 µM) it was 0.49. Besides, the relative viability is 0.414 in the test with AZD6482 + Vorinostat (first compound 2.53 µM); 0.409 in the test with AZD6482 + Vorinostat (first compound 8 µM); 0.339 with AZD6482 + Pictilisib (first compound 0.08 µM); 0.335 in the test with AZD6482 + Pictilisib (first compound 0.253 µM); 0.366 with AZD6482 + Pictilisib (first compound 0.8 µM); 0.25 with AZD6482 + Pictilisib (first compound 2.53 µM). The relative viability in the test with AZD6482 + Pictilisib (first compound 8 µM) is 0.34.

LXF-289: the relative viability in test [1] (first compound 0.2 µM) was 0.511; in test [1] (first compound 0.6325 µM) it was 0.507; in test [1] (first compound 2 µM), 0.527; in test [1] (first compound 6.325 µM), 0.525; with AZD6482 + Trametinib (first compound 0.08 µM) it was 0.681; with AZD6482 + Trametinib (first compound 0.253 µM), 0.77. The relative viability in the test with AZD6482 + Trametinib (first compound 0.8 µM) amounted to 0.801; with AZD6482 + Trametinib (first compound 2.53 µM), 0.717; in the test with AZD6482 + Trametinib (first compound 8 µM), 0.609; with AZD6482 + Vorinostat (first compound 0.08 µM), 0.814; in the test with AZD6482 + Vorinostat (first compound 0.253 µM), 0.741; in the test with AZD6482 + Vorinostat (first compound 0.8 µM), 0.87. Further, the relative viability with AZD6482 + Vorinostat (first compound 2.53 µM) was found to be 0.729; with AZD6482 + Vorinostat (first compound 8 µM) it was 0.752; with AZD6482 + Pictilisib (first compound 0.08 µM) it was 0.66; with AZD6482 + Pictilisib (first compound 0.253 µM), 0.736; with AZD6482 + Pictilisib (first compound 0.8 µM) it was 0.739; in the test with AZD6482 + Pictilisib (first compound 2.53 µM), 0.638. Moreover, the relative viability in the test with AZD6482 + Pictilisib (first compound 8 µM) worked out at 0.745.

With NCI-H23, the relative viability in test [1] (first compound 0.2 µM) is 0.743; in test [1] (first compound 0.6325 µM), 0.717; in test [1] (first compound 2 µM), 0.936; in test [1] (first compound 6.325 µM) it was 0.794; with AZD6482 + Trametinib (first compound 0.08 µM) it was 0.33; with AZD6482 + Trametinib (first compound 0.253 µM), 0.34. Besides, the relative viability with AZD6482 + Trametinib (first compound 0.8 µM) is 0.326; in the test with AZD6482 + Trametinib (first compound 2.53 µM), 0.283; with AZD6482 + Trametinib (first compound 8 µM), 0.247; with AZD6482 + Vorinostat (first compound 0.08 µM), 0.542; with AZD6482 + Vorinostat (first compound 0.253 µM) it was 0.516; with AZD6482 + Vorinostat (first compound 0.8 µM) it was 0.617. The relative viability came to 0.374 with AZD6482 + Vorinostat (first compound 2.53 µM); 0.407 with AZD6482 + Vorinostat (first compound 8 µM); 0.465 in the test with AZD6482 + Pictilisib (first compound 0.08 µM); 0.482 with AZD6482 + Pictilisib (first compound 0.253 µM); 0.452 in the test with AZD6482 + Pictilisib (first compound 0.8 µM); 0.356 in the test with AZD6482 + Pictilisib (first compound 2.53 µM). In addition, the relative viability with AZD6482 + Pictilisib (first compound 8 µM) amounted to 0.494.

Consider NCI-H322M, for which the relative viability in test [1] (first compound 0.2 µM) is 0.669; in test [1] (first compound 0.6325 µM), 0.743; in test [1] (first compound 2 µM), 0.748; in test [1] (first compound 6.325 µM), 0.762; with AZD6482 + Trametinib (first compound 0.08 µM) it was 0.51; in the test with AZD6482 + Trametinib (first compound 0.253 µM), 0.534. The relative viability with AZD6482 + Trametinib (first compound 0.8 µM) was determined as 0.58; with AZD6482 + Trametinib (first compound 2.53 µM), 0.452; with AZD6482 + Trametinib (first compound 8 µM) it was 0.443; in the test with AZD6482 + Vorinostat (first compound 0.08 µM) it was 0.846; in the test with AZD6482 + Vorinostat (first compound 0.253 µM), 0.818; with AZD6482 + Vorinostat (first compound 0.8 µM), 0.812. The relative viability with AZD6482 + Vorinostat (first compound 2.53 µM) was 0.473; in the test with AZD6482 + Vorinostat (first compound 8 µM), 0.565; with AZD6482 + Pictilisib (first compound 0.08 µM), 0.485; with AZD6482 + Pictilisib (first compound 0.253 µM), 0.399; with AZD6482 + Pictilisib (first compound 0.8 µM), 0.475; in the test with AZD6482 + Pictilisib (first compound 2.53 µM) it was 0.353. Further, the relative viability with AZD6482 + Pictilisib (first compound 8 µM) stood at 0.498.

Turning to NCI-H358, the relative viability in test [1] (first compound 0.2 µM) came to 0.318; in test [1] (first compound 0.6325 µM) it was 0.522; in test [1] (first compound 2 µM), 0.296; in test [1] (first compound 6.325 µM), 0.305; with AZD6482 + Trametinib (first compound 0.08 µM), 0.133; in the test with AZD6482 + Trametinib (first compound 0.253 µM) it was 0.131. The relative viability with AZD6482 + Trametinib (first compound 0.8 µM) amounted to 0.12; with AZD6482 + Trametinib (first compound 2.53 µM), 0.117; with AZD6482 + Trametinib (first compound 8 µM), 0.113; with AZD6482 + Vorinostat (first compound 0.08 µM), 0.494; with AZD6482 + Vorinostat (first compound 0.253 µM), 0.648; in the test with AZD6482 + Vorinostat (first compound 0.8 µM), 0.672. The relative viability with AZD6482 + Vorinostat (first compound 2.53 µM) turned out to be 0.347; in the test with AZD6482 + Vorinostat (first compound 8 µM), 0.56; with AZD6482 + Pictilisib (first compound 0.08 µM) it was 0.274; in the test with AZD6482 + Pictilisib (first compound 0.253 µM) it was 0.386; with AZD6482 + Pictilisib (first compound 0.8 µM) it was 0.276; with AZD6482 + Pictilisib (first compound 2.53 µM) it was 0.202. Further, the relative viability in the test with AZD6482 + Pictilisib (first compound 8 µM) was 0.358.

With NCI-H441, the relative viability in test [1] (first compound 0.2 µM) worked out at 0.821; in test [1] (first compound 0.6325 µM), 0.859; in test [1] (first compound 2 µM), 1.03; in test [1] (first compound 6.325 µM), 0.85; in the test with AZD6482 + Trametinib (first compound 0.08 µM) it was 0.422; in the test with AZD6482 + Trametinib (first compound 0.253 µM), 0.435. In addition, the relative viability in the test with AZD6482 + Trametinib (first compound 0.8 µM) amounted to 0.39; with AZD6482 + Trametinib (first compound 8 µM), 0.312; with AZD6482 + Vorinostat (first compound 0.08 µM), 0.854; with AZD6482 + Vorinostat (first compound 0.253 µM), 0.788; in the test with AZD6482 + Vorinostat (first compound 0.8 µM), 0.741; in the test with AZD6482 + Vorinostat (first compound 8 µM) it was 0.782. Also, the relative viability with AZD6482 + Pictilisib (first compound 0.08 µM) worked out at 0.453; in the test with AZD6482 + Pictilisib (first compound 0.253 µM), 0.389; with AZD6482 + Pictilisib (first compound 0.8 µM) it was 0.408; with AZD6482 + Pictilisib (first compound 2.53 µM), 0.32; with AZD6482 + Pictilisib (first compound 8 µM) it was 0.431.

For the cell line NCI-H460, the relative viability in test [1] (first compound 0.2 µM) was found to be 0.501; in test [1] (first compound 0.6325 µM), 0.492; in test [1] (first compound 2 µM), 0.478; in test [1] (first compound 6.325 µM) it was 0.484; with AZD6482 + Trametinib (first compound 0.08 µM), 0.138; with AZD6482 + Trametinib (first compound 0.253 µM), 0.106. Besides, the relative viability with AZD6482 + Trametinib (first compound 0.8 µM) amounted to 0.146; in the test with AZD6482 + Trametinib (first compound 2.53 µM), 0.0746; with AZD6482 + Trametinib (first compound 8 µM), 0.126; with AZD6482 + Vorinostat (first compound 0.08 µM), 0.599; in the test with AZD6482 + Vorinostat (first compound 0.253 µM), 0.797; with AZD6482 + Vorinostat (first compound 0.8 µM), 0.895. For the same cell line, the relative viability with AZD6482 + Vorinostat (first compound 2.53 µM) worked out at 0.344; with AZD6482 + Vorinostat (first compound 8 µM), 0.594; with AZD6482 + Pictilisib (first compound 0.08 µM) it was 0.332; with AZD6482 + Pictilisib (first compound 0.253 µM), 0.336; with AZD6482 + Pictilisib (first compound 0.8 µM), 0.379; with AZD6482 + Pictilisib (first compound 2.53 µM), 0.249. In addition, in the test with AZD6482 + Pictilisib (first compound 8 µM), the relative viability was 0.331.
